The values that follow come from ChEMBL document CHEMBL1201862, “PubChem BioAssay data set” (2004).

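Interpolation was linear, between the two tested concentrations surrounding the appropriate level; five concentrations were tested over 48 hours in 96-well plates. GI50 marks 50% less growth.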 Active and inactive are the calls of the source. No stated cut-off is given here; in the data, active = GI50 up to about 1.1 µM and inactive = higher. Where a SMILES comes first, the peptide text is derived from it. [ ]: non-standard residue; d: D form. The star is where a group is joined. ξ: configuration not given here. ξF = NC(Cc1ccccc1)C(=O)O; Cbz = O=C(OCc1ccccc1)*; Aib = CC(C)(N)C(=O)O; NHNH2 = NN*

Some test systems named below: RXF 393; K562; HCT-15; UO-31; HOP-92; MDA-MB-435; MDA-N; A498; SK-MEL-28; MOLT-4; T47D; NCI/ADR-RES; KM12; NCI-H522; IGROV-1; SNB-75; DU-145; SNB-19; SF-539; MCF7.
Common to all, as to assay: DTP human tumour cell line panel, 48 h

For the molecule `COc1cc(O)c2c(O)c3c(c4c2c1[C@]1(C4)C(C)=CCCC1(C)C)[C@H](O)[C@@]1(O)CC(O)=C(C(N)=O)C(=O)[C@@]1(O)C3=O`, the GI50 was 0.459 µM (active) with RXF 393; 0.123 µM (active) in the assay with K562; 0.164 µM in the assay on HCT-15; 0.34 µM (active) with UO-31; 0.362 µM (active) in the assay with HOP-92; 0.0667 µM (active) with MDA-MB-435. Besides, the GI50 with MDA-N is 0.333 µM (active); with A498, 0.163 µM (active); in the assay with SK-MEL-28, 0.873 µM (active); in the assay with MOLT-4, 0.333 µM (active); with T47D, 0.365 µM (active); with NCI/ADR-RES, 0.345 µM (active). Further, the GI50 in the assay on KM12 was 0.346 µM (active); with NCI-H522, 0.071 µM (active); in the assay on IGROV-1, 0.643 µM (active); in the assay with SNB-75 it was 0.108 µM (active); in the assay on DU-145, 0.359 µM (active); in the assay on SNB-19 it was 0.42 µM (active). Further, the figures for the GI50 in the assay with SF-539 and with MCF7 were 0.166 µM (active) and 0.164 µM (active), respectively.

As for `CCCCCCCCCCc1c2nc(c(CCCCCCCCCC)c3ccc([nH]3)c(CCCCCCCCCC)c3nc(c(CCCCCCCCCC)c4ccc1[nH]4)C=C3)C=C2`, the GI50 with RXF 393 was > 100 µM (inactive); with K562, > 100 µM (inactive); in the assay on HCT-15, above 100 µM; with UO-31 it was > 100 µM (inactive); with HOP-92, > 100 µM (inactive); with MDA-MB-435, > 100 µM (inactive). In addition, the GI50 with MDA-N, in the assay with A498, with SK-MEL-28, in the assay with MOLT-4, in the assay on T47D and with NCI/ADR-RES was > 100 µM (inactive) in each case. For the same molecule, the GI50 in the assay on KM12, with NCI-H522, with IGROV-1, in the assay on SNB-75, in the assay with DU-145 and in the assay on SNB-19 was > 100 µM (inactive) each time. In addition, the GI50 with SF-539 and in the assay with MCF7 was > 100 µM (inactive) throughout.

As for `O=c1[nH]nc(Cc2ccccc2)n1/N=C\CC/C=N\n1c(Cc2ccccc2)n[nH]c1=O`, the GI50 in the assay with RXF 393 is 24.3 µM (inactive); with K562 it was 36.2 µM (inactive); in the assay with HCT-15, 19.9 µM; in the assay on UO-31, > 100 µM (inactive); in the assay with HOP-92, 41.8 µM (inactive); in the assay with MDA-MB-435 it was 34.6 µM (inactive). Also, the GI50 is 44.7 µM (inactive) in the assay on MDA-N; > 100 µM (inactive) in the assay with A498; 30.1 µM (inactive) with SK-MEL-28; 31.1 µM (inactive) in the assay on MOLT-4; 30.9 µM (inactive) in the assay on T47D; 19.4 µM (inactive) in the assay on NCI/ADR-RES. The GI50 was > 100 µM (inactive) with KM12; 61.1 µM (inactive) in the assay on NCI-H522; 14.3 µM (inactive) in the assay on IGROV-1; 24.4 µM (inactive) in the assay with SNB-75; 43.5 µM (inactive) in the assay with DU-145; 42.9 µM (inactive) with SNB-19. The values for the GI50 in the assay with SF-539 and in the assay on MCF7 were 19 µM (inactive) and 30 µM (inactive), respectively.

With `CC(C)(NC(=O)OCc1ccccc1)C(=O)NC(Cc1ccccc1)C(=O)NN` (stereo not given) (Cbz-[Aib]-[ξF]-NHNH2), the GI50 was > 100 µM (inactive) in the assay on RXF 393; > 100 µM (inactive) in the assay on K562; above 100 µM in the assay with HCT-15; > 100 µM (inactive) in the assay with UO-31; > 100 µM (inactive) in the assay with HOP-92; > 100 µM (inactive) in the assay on MDA-MB-435. Besides, the GI50 in the assay on MDA-N is 42.1 µM (inactive); in the assay on A498, > 100 µM (inactive); with SK-MEL-28 it was > 100 µM (inactive); in the assay with MOLT-4 it was > 100 µM (inactive); in the assay with T47D, > 100 µM (inactive); in the assay with NCI/ADR-RES it was > 100 µM (inactive). In addition, the GI50 in the assay with KM12, with NCI-H522, in the assay with IGROV-1, in the assay with SNB-75, in the assay on DU-145 and in the assay on SNB-19 was > 100 µM (inactive) throughout. Besides, the GI50 in the assay with SF-539 and in the assay on MCF7 was > 100 µM (inactive) in each case.
